Results on 2 compounds are retold here after patent EP0028279A1, “Phthalide-isoquinoline derivatives, their preparation and their use in medicaments” (CALAIRE CHIMIE S.A., priority 1979, dated 1981).

For data set [1], the target named is T1, histidine décarboxylase de rein de cobaye (Cavia porcellus, UniProt H0WB71).
T1 construct: le pourcentage de réduction de l'activité de l'enzyme du rein des animaux traités; from tissue; host or cells: guinea pig kidney
T1 sequence (H0WB71 1-642): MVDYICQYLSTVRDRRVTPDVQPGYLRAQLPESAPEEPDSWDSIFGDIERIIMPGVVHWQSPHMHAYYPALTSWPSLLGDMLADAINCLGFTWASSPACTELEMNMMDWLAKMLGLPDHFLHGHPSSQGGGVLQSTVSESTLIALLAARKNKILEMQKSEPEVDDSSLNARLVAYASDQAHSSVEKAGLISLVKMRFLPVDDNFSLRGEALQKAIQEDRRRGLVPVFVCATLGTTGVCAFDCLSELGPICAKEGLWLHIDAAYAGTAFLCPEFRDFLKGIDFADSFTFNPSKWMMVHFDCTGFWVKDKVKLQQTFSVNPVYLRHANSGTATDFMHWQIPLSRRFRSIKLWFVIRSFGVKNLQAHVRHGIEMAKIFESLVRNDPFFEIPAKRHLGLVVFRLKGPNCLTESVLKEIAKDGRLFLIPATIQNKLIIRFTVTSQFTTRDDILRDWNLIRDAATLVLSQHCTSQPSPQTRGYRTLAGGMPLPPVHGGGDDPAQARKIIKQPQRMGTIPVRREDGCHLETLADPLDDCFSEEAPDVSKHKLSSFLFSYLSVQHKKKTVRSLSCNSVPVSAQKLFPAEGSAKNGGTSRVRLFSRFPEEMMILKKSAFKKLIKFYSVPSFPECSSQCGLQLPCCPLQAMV
The data set is described as follows: Kidney histidine decarboxylase activity after in vivo administration (method of Kosmicki et al.). The following applies: guinea pigs sacrificed 5 hours after administration, reduction versus controls, read-out: Activité exprimée en % d'inhibition de l'enzyme. An excerpt: L'activité du composé 458L a été comparée à celle de la tritoqualine qui est à la connaissance des Demandeurs, le seul produit utilisé en thérapeutique pour cette propriété. La technique de mesure de l'activité de l'histidine décarboxylase de rein de cobaye a été décrite par B. Kosmicki et al (J. Pharmacol. Paris 1974 - 5 - 3 - 331 - 342). Les cobayes ont été sacrifiés cinq heures après l'administration des substances étudiées. Il a été déterminé par rapport aux témoins le pourcentage de réduction de l'activité de l'enzyme du rein des animaux traités. Les résultats obtenus sont rapportés dans le tableau ci-dessous : […]

Details of data set [2]: species or system souris. The following applies: in vivo. An excerpt:
(§1) La toxicité a été déterminée de manière habituelle.

A short description of data set [3]: Acute toxicity (LD50), oral, mouse. The following applies: in vivo, read-out: DL 50 (the source's name).
Source text: as §1

For `CCOc1c(N)c2c(c(OCC)c1OCC)C(C1c3c(cc4c(c3OC)OCO4)CCN1C)OC2=O` (stereo not shown) [Tritoqualine, tritoqualine, reference compound], in data set [1], the inhibition at 10 mg/kg turned out to be 10%, the inhibition at 20 mg/kg stood at 20%, the inhibition at 40 mg/kg came out at 20% and the inhibition at 60 mg/kg is 22%.
As for `CCOc1c(N)c2c(c(OCC)c1OCC)C(C1c3c(cc(OC)c(OC)c3OC)CCN1C)OC2=O` (stereo not shown) [458 L], the toxicité chronique entry in data set [2] was “bonne tolérance”. In data set [1], the inhibition at 10 mg/kg is 14%, the inhibition at 20 mg/kg is 21%, the inhibition at 40 mg/kg came out at 31% and the inhibition at 60 mg/kg turned out to be 41%. Besides, the LD50 in data set [3] is approximately 6000 mg/kg.

For orientation: inhibition means the change of the read-out against control, counted positive when it falls.
